{"source": "patent US5985603A", "about": "“P2x receptor DNA and protein sequence” (Glaxo Group Limited, priority 1994, dated 1999)", "key": {"P2X-purinoceptor": {"test_system": "P2X-purinoceptor", "conditions": "cited from earlier work"}, "[1]": {"test_system": "non-transfected CHO cells", "assay": "electrophysiological recording in non-transfected CHO cells (control)", "format": "cell-based, chinese hamster", "conditions": "up to 30 μM; 45 of 45 cells", "description": "CHO cells were stably transfected by a method used for other ion channels (Claudio, Meth. Enzymol. 207 391-408 (1992)). Transfection was confirmed by a) electro-physiological recording and b) radioligand binding. […] [^3 H]αβmethyleneATP binding was more than 600 cpm per million transfected cells with less than 80 cpm nonspecific binding."}, "hP2X": {"target": "T1, hP2X (Homo sapiens, UniProt P51575)", "T1 construct": "expressed in transfected cells; host or cells: Xenopus oocytes injected with in vitro transcribed RNA", "T1 sequence (P51575 1-399)": "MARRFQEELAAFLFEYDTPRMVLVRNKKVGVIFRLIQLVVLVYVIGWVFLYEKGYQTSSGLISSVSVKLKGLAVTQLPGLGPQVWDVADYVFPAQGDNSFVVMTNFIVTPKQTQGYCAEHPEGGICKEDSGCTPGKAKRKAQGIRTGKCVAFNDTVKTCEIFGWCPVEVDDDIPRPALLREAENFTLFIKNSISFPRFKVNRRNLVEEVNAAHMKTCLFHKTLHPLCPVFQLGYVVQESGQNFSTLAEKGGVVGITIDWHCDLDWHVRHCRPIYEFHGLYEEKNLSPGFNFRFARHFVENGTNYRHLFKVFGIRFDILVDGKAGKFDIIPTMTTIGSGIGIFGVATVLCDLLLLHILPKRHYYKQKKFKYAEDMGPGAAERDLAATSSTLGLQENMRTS", "assay": "inward currents evoked by purinoceptor agonists in Xenopus oocytes expressing hP2X", "format": "cell-based", "procedure": "Human urinary bladder P2X cDNA, subcloned into the pBKCMV expression vector, was linearized with Notl, and transcribed in vitro with T3 polymerase in the presence of cap analogue m7G(5')ppp(5')G. Defolliculated Xenopus oocytes (Bertrand et al, Electrophysiology of neuronal nicotinic acetylcholine receptors expressed in Xenopus oocytes following nuclear injection of genes or cDNAs Meth Neurosci 4: 174-193 (1991)) were injected with 50 ng of human P2X in vitro transcribed RNA, and incubated at 18° C. for 2-6 days in the ND96 solution (mM): NaCl96, KCl2, MgCl2 1, CaCl2 2, sodium pyruvate 5, HEPES 5, ph 7.6-7.5, penicillin (10 U/ml), and streptomycin (10 μg/ml).\nOocytes were placed in a 1 ml chamber and superfused at 2-3 ml/min with ND96 solution with 0.1 mM BaCl2 replacing the 2 mM CaCl2 to prevent activation of endogenous calcium-activated chloride currents (Barish, A transient calcium-dependent chloride current in the immature Xenopus oocytes J Physiol 342: 309-325 (1983)). Currents were measured using a two-electrode voltage-clamp amplifier (Geneclamp Axon Instruments)at a holding potential of -60 mV. Microelectrodes were filled with 3 M KCl (0.5-2 M.OMEGA.). Data were collected using PClamp software (Axon Instruments). […] Antagonists were applied both in the superfusate and together with ATP in the U-tube solution.\nConcentration response curves for purinoceptor agonists were fitted with a Hill slope of 1. […] Data are presented throughout as mean ± SEM for a given number of oocytes."}, "[2]": {"target": "T2, rat superior cervical ganglion P2X receptor (clone 3) (Rattus norvegicus, UniProt P51577)", "T2 construct": "The insert appeared to be a full length cDNA; expressed in transfected cells; host or cells: HEK293 cells transfected with pcDNA3 construct p464 (also oocytes injected with in vitro transcribed RNA)", "T2 sequence (P51577 1-388)": "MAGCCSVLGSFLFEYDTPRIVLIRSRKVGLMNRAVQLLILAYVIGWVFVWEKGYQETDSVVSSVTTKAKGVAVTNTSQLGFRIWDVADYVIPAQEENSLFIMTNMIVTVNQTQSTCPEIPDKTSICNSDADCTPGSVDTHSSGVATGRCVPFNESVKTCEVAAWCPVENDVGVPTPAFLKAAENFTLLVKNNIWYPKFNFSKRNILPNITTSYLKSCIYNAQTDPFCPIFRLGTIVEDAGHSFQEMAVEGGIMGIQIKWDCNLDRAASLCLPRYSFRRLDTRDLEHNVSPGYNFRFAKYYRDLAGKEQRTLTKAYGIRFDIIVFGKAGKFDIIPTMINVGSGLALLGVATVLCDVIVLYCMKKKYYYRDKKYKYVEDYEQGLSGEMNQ", "assay": "functional properties of cloned P2X receptors (electrical recordings): clone 3", "format": "cell-based"}, "[3]": {"conditions": "ATP higher concentrations (1 μM)"}}}
{"smiles": "Nc1ncnc2c1ncn2[C@@H]1O[C@H](COP(=O)([O-])OP(=O)([O-])OP(=O)([O-])[O-])[C@@H](O)[C@H]1O.[Mg+2].[Mg+2]", "note": "[ATP, adenosine 5'-triphosphate magnesium salt]", "values": [{"measurement": "agonist potency order in whole tissue studies", "setting": "P2X-purinoceptor", "result": "α,β,-meATP >>2MeSATP≥ATP"}, {"measurement": "effect in non-transfected cells", "setting": "[1]", "result": "no effect in 45 of 45 non-transfected cells"}, {"measurement": "response to repeated application", "setting": "hP2X; 100 μM ATP for 5 s every 10 min", "result": "reproducible inward currents"}, {"measurement": "reversal of current on washout", "setting": "hP2X; ATP", "result": "returned to control values on washout"}, {"measurement": "time over which responses developed", "setting": "hP2X; ATP 30-300 nM", "result": "3 to 5", "unit": "s"}, {"measurement": "response after 5 s of continued application, of the peak amplitude", "setting": "hP2X; [3]", "result": "40-60"}, {"measurement": "time to peak of response", "setting": "hP2X; [3]", "result": "1 to 1.5", "unit": "s"}, {"measurement": "variation in peak amplitude on repeated application", "setting": "hP2X; ATP up to 1 mM for 5 s every 10 mins", "result": "< 10", "unit": "%"}, {"measurement": "comparison of concentration-effect curves", "setting": "hP2X; ATP, 2MeSATP and 2-chloro-ATP", "result": "superimposable"}, {"measurement": "agonist profile (rank order)", "setting": "hP2X; oocytes expressing hP2X", "result": "2MeSATP≥ATP>α,β,-meATP"}, {"measurement": "activation at 10 µM", "setting": "hP2X; read-out: response to 10 μM ATP, % of peak response to ATP", "result": "~90", "unit": "%"}, {"measurement": "EC50", "setting": "[2]", "result": 11, "unit": "µM"}, {"measurement": "decline of currents (desensitisation) during application", "setting": "[2]; applications of several seconds", "result": "little or no decline during applications of several seconds"}]}
